Source: patent publication US9738614B2, “Malignant and non-malignant disease treatment with Ras antagonists” (PISCES THERAPEUTICS, LLC, priority 2011, dated 2017)

Tests used:
U87MG cells = test: Cell proliferation assay for U87MG cells; format: cell-based
Protocol: (§1) The adult glioblastoma cell line U87MG was obtained from a commercial source (ATCC). The pancreatic cancer cell line PANC-1 was obtained from a local laboratory (Indiana University). Both lines were grown in Iscove's Modified Dulbecco's Medium with 10% fetal bovine serum (FBS) at 37° C. and 5% CO2.
(§2) Compounds (1), (2), (3), (4), and (5), which are shown and described above, were each dissolved in ethanol at 10 mg/mL. A measured portion of the solution was pipetted into a microcentrifuge tube. Then, the ethanol was evaporated from each tube using a SpeedVac®, leaving just the compound in the tube. The appropriate amount of chloroform was added to the tube to produce a 0.1 M concentration. The solutions were placed on ice and in the dark so they could be pipetted into 10- and 20-μL aliquots in 1.5 mL microcentrifuge tubes. The solutions were frozen at […] with lids closed tightly and the tubes covered with foil.
(§3) Prior to treating the cells, a tube of the test compound was removed from the freezer and placed under a biosafety hood to evaporate the chloroform in the tubes. Then, dimethyl sulfoxide (DMSO) was added to the tubes to make the correct concentration to use in the experiment (0.1 M stock). The tubes were vortexed, and warm media with 10% FBS was slowly added to make the correct working concentrations to be used in the experiment. The compounds were directly added to each well for treatment.
U87MG cells were seeded in a 24-well plate, 5000 cells per well, and incubated overnight at 37° C. in serum-free media. The next day they were treated in triplicate with 50 and 100 μM of each test compound (1), (2), (3), (4), and (5) and the reference compound FTS. After five days, the cells were trypsinized (0.5%), stained with trypan blue, and counted to determine the cell number per well. The half-maximal inhibitory concentration (IC50) values were calculated using Multiplex Reader-Fit software made by MiraiBio Group, Hitachi Solutions America, Ltd. In a typical experiment, the control wells averaged 138,000 cells. The results are presented graphically in FIG. 1. The test compounds at 50 μM allowed the following U87MG cell proliferation compared to control: compound (1)—37%, compound (2)—18%, compound (3)—10%, compound (4)—40%, and compound (5)—0%. The reference compound FTS at 50 μM allowed 7% cell proliferation compared to control.
To further evaluate compounds (3) and (5), which inhibited the most cell growth in FIG. 1, more U87MG cells were seeded in 24-well plates, 5000 cells per well, and incubated overnight at 37° C. in serum-free media. The cells were treated the next morning in media with 5% serum in triplicate with standard concentrations of 6.25, 12.5, 25, and 50 μM of each test compound (3) and (5) and the reference compound FTS. After five days of treatment, the cells were trypsinized (0.5%) and then stained with trypan blue. Cells were counted to determine the number of cells per well. Again, the IC50 values were calculated using Multiplex Reader-Fit software made by MiraiBio Group, Hitachi Solutions America, Ltd. In a typical experiment, the control wells averaged 56,000 cells. The results are presented graphically in FIG. 2. The test compounds at 25 μM allowed the following U87MG cell proliferation compared to control: compound (3)—69% and compound (5)—0%. The reference compound FTS at 25 μM allowed over 50% cell proliferation compared to control.
Since the doses of compound (5) used above killed all of the cells, the dose curve was set up again using even lower doses of compound (5). U87MG cells were seeded in 24-well plates, 5000 cells per well, and incubated overnight at 37° C. in serum-free media. The cells were treated in triplicate with 6.25, 12.5, 25, and 50 μM of the reference compound FTS and 0.3125, 0.625, 1.25, 2.5, and 5.0 μM of the test compound (5) in media with 5% serum for five days. Then, the cells were trypsinized (0.5%) and stained with trypan blue, and the cell number per each well was determined. […]

PANC-1 cells = test: Cell proliferation assay for PANC-1 cells; format: cell-based; details: 12.5 μM, media with 5% serum, five days (FIG. 3)
Protocol: as §1, §2, §3
The cells were treated in triplicate with standard concentrations of 6.25, 12.5, 25, 50, and 100 μM of each test compound (3) and (5) and the reference compound FTS and, when needed, concentrations of 0.625, 1.25, 2.5 and 5.0 μM in media with 5% serum for five days. Then, the cells were stained with trypan blue, and the cell number per each well was determined. Again, the IC50 values were calculated using Multiplex Reader-Fit software made by MiraiBio Group, Hitachi Solutions America, Ltd. In a typical experiment, the control wells averaged 32,500 cells. The results are presented graphically in FIG. 3. […]

[1] = test system: hematopoietic progenitor cells (cord blood low density cells); test: Human hematopoietic progenitor cell toxicity (colony assay); format: cell-based; details: 12 days; 25 and 2.5 μM for compound (3), 2.5 and 0.25 μM for compound (5)
Protocol: Cord blood low density cells were plated at 1×10^5 cells per plate in 1 mL complete methylcellulose in the presence of each test compound (3) and (5) and incubated for 12 days in a CO2 incubator. Colony-forming unit-granulocyte (CFU-GM), burst-forming unit-erythroid (BFU-E), and mixed colonies were counted under an inverted microscope. […] The test compounds were not toxic to the hematopoietic progenitor cells.

[2] = test system: primary human lung fibroblasts; test: Inhibition of TGF-β induced myofibroblast formation (α-SMA Western blot); format: cell-based; details: TGF-β 72 hours, concentrations below 25 μM
Protocol: Primary human lung fibroblasts were stimulated for 72 hours with transforming growth factor beta (TGF-β) to induce their differentiation to an alpha smooth muscle actin (α-SMA) expressing activated myofibroblasts cell fate. […] The activin like kinase receptor (ALK5) inhibitor SB431542 was used as a positive control. Myofibroblast formation was evaluated by Western blot by examining changes in α-SMA levels.

Ras-GTP = Ras-GTP Western blot in PDGF-stimulated NF-1-/- Schwann cells; format: cell-based, mouse; details: 2.5-5 μM, 3 minutes after PDGF stimulation (FIG. 5A)
Protocol: (§4) A purified population of NF-1−/−S 100+Schwann cells isolated from a plexiform neurofibroma in a genetically engineered mouse (Zhu, Y. et al., Science, May 2002, 3; 296(5569)):920-922) were stimulated with a maximum stimulating concentration of platelet derived growth factor (PDGF) in the presence of a control or compound (3) at concentrations of 2.5-5 μM. Ras-GTP was measured 3 minutes subsequently using Western blot analysis. […] In parallel experiments, Schwann cell proliferation was measured using visible spectroscopy 24 hrs after PDGF stimulation in the presence of a control or compound (3) at concentrations of 25-50 μM. […] Each asterisk in FIG. 5B represents a statistical difference relative to the control using analysis of variance. (Yang, Feng-Chun, et. al. J Clin Invest 2003, 112(12), 1851-1861; Yang, Feng-Chun, et. al. Hum Mol Genet 2006, 15(11), 1921-1930).

[3] = test system: NF-1-/- S100+ Schwann cells; test: NF-1-/- Schwann cell proliferation (visible spectroscopy); format: cell-based, mouse; details: 25-50 μM, 24 hrs after PDGF stimulation (FIG. 5B)
Protocol: as §4

[4] = 25 μM, media with 5% serum, five days (FIG. 2)
[5] = 50 μM, five days, trypan blue cell count (FIG. 1)

| Structure (SMILES) | U87MG cell proliferation compared to control (U87MG cells; 6.25 μM, media with 5% serum, five days (FIG. 2)) | U87MG cell proliferation compared to control (U87MG cells; [4]) | U87MG cell proliferation compared to control (U87MG cells; [5]) [%] | PANC-1 cell proliferation compared to control (PANC-1 cells) | toxicity to hematopoietic progenitor cells (CFU-GM, BFU-E, mixed colonies) [1] | IC50 (U87MG cells; Homo sapiens, U-87 MG, value quoted in Example 7, read-out: IC50 as determined on the U87MG cells) [µM] | inhibition of myofibroblast formation [2] | level of Ras-GTP relative to the control (Ras-GTP) | Schwann cell proliferation relative to the control [3] |
| --- | --- | --- | --- | --- | --- | --- | --- | --- | --- |
| CC(C)=CCC/C(C)=C/CC/C(C)=C/CSc1ccccc1C(=O)O [FTS, farnesyl-thiosalicylic acid, reference compound] | over 80% | over 50% | 7 | over 80% | – | – | – | – | – |
| CC(C)=CCC/C(C)=C/CC/C(C)=C/CSc1ccccc1-c1nn[nH]n1 [compound (1), 5-(2-{[(2E,6E)-3,7,11-trimethyldodeca-2,6,10-trien-1-yl]sulfanyl}phenyl)-2H-1,2,3,4-tetrazole] | – | – | 37 | – | – | – | – | – | – |
| CC(C)=CCC/C(C)=C/CC/C(C)=C/CSc1ccsc1C(=O)O [compound (3), 3-{[(2E,6E)-3,7,11-trimethyldodeca-2,6,10-trien-1-yl]sulfanyl}thiophene-2-carboxylic acid] | – | 69% | 10 | 41% | not toxic | 25 | did not inhibit | significantly reduced | reduced |
| CCOC(=O)c1nnsc1SC/C=C(\C)CC/C=C(\C)CCC=C(C)C [compound (4), Ethyl 5-{[(2E,6E)-3,7,11-trimethyldodeca-2,6,10-trien-1-yl]sulfanyl}-1,2,3-thiadiazole-4-carboxylate] | – | – | 40 | – | – | – | – | – | – |
